ChEMBL document CHEMBL5543162, “Discovery of a Novel Orally Bioavailable FLT3-PROTAC Degrader for Efficient Treatment of Acute Myeloid Leukemia and Overcoming Resistance of FLT3 Inhibitors” (J Med Chem, 2024)
pIC50: −log10 of the molar value. The source made the active and inactive calls. The calls are words filed in the database; no cut-off is given here.

Assays:
MV4-11 [1] = test: Antiproliferative activity against human MV4-11 cells expressing FLT3-ITD mutant incubated for 48 hrs by CCK8 assay; format: functional, cell-based; conditions: MV4-11, 48 h
MOLM-13 [2] = test: Antiproliferative activity against human MOLM-13 cells incubated for 48 hrs by CCK8 assay; format: functional, cell-based; conditions: MOLM-13, 48 h
MOLM-13 [3] = test: Antiproliferative activity against Sunitinib-resistant human MOLM-13 cells incubated for 48 hrs by CCK8 assay; format: functional, cell-based; conditions: MOLM-13, 48 h
MOLM-13 [4] = test: Antiproliferative activity against Quizartinib-resistant human MOLM-13 cells incubated for 48 hrs by CCK8 assay; format: functional, cell-based; conditions: MOLM-13, 48 h
[5] = Antiproliferative activity against human THP-1 cells expressing wild-type FLT3 incubated for 48 hrs by CCK8 assay; format: toxicity, cell-based
[6] = Antiproliferative activity against human U-937 cells expressing wild-type FLT3 incubated for 48 hrs by CCK8 assay; format: toxicity, cell-based
[7] = Antiproliferative activity against human HL-60 cells expressing wild-type FLT3 incubated for 48 hrs by CCK8 assay; format: toxicity, cell-based
MV4-11 [8] = test: Antitumor activity against human MV4-11 cells xenografted in nu/nu mouse at 1.6 mg/kg, po administered daily for 2 weeks relative to control; format: functional; conditions: MV4-11, 336 h, read-out: TGI
[9] = Stability in human liver microsomes assessed as half life; format: ADME, Microsome
[10] = Stability in dog liver microsomes assessed as half life; format: ADME, Canis lupus familiaris, Microsome
[11] = Stability in monkey liver microsomes assessed as half life; format: ADME, Microsome; conditions: chlorocebus aethiops
[12] = Stability in rat liver microsomes assessed as half life; format: ADME, Microsome
[13] = Stability in mouse liver microsomes assessed as half life; format: ADME, Microsome
[14] = Stability in human liver microsomes assessed as intrinsic clearance; format: ADME, Microsome; conditions: read-out: CLH
[15] = Stability in dog liver microsomes assessed as intrinsic clearance; format: ADME, Canis lupus familiaris, Microsome; conditions: read-out: CLH
[16] = Stability in monkey liver microsomes assessed as intrinsic clearance; format: ADME, Microsome; conditions: chlorocebus aethiops, read-out: CLH
[17] = Stability in rat liver microsomes assessed as intrinsic clearance; format: ADME, Microsome; conditions: read-out: CLH
[18] = Stability in mouse liver microsomes assessed as intrinsic clearance; format: ADME, Microsome; conditions: read-out: CLH
[19] = Stability in human liver microsomes assessed as hepatic clearance; format: ADME, Microsome
[20] = Stability in dog liver microsomes assessed as hepatic clearance; format: ADME, Canis lupus familiaris, Microsome
[21] = Stability in monkey liver microsomes assessed as hepatic clearance; format: ADME, Microsome; conditions: chlorocebus aethiops
[22] = Stability in rat liver microsomes assessed as hepatic clearance; format: ADME, Microsome
[23] = Stability in mouse liver microsomes assessed as hepatic clearance; format: ADME, Microsome
[24] = tested on: Protein cereblon/Receptor-type tyrosine-protein kinase FLT3 (Homo sapiens), P36888+Q96SW2 [UNDEFINED MUTATION]; test: PROTAC activity at CRBN/FLT3-ITD mutant in human MV4-11 cells assessed as protein degradation at 100 nM incubated for 8 hrs by Western blot analysis; format: cell-based
Sequence of Protein cereblon/Receptor-type tyrosine-protein kinase FLT3 (Homo sapiens), P36888+Q96SW2 [UNDEFINED MUTATION] (P36888 whole entry, looked up, change not shown): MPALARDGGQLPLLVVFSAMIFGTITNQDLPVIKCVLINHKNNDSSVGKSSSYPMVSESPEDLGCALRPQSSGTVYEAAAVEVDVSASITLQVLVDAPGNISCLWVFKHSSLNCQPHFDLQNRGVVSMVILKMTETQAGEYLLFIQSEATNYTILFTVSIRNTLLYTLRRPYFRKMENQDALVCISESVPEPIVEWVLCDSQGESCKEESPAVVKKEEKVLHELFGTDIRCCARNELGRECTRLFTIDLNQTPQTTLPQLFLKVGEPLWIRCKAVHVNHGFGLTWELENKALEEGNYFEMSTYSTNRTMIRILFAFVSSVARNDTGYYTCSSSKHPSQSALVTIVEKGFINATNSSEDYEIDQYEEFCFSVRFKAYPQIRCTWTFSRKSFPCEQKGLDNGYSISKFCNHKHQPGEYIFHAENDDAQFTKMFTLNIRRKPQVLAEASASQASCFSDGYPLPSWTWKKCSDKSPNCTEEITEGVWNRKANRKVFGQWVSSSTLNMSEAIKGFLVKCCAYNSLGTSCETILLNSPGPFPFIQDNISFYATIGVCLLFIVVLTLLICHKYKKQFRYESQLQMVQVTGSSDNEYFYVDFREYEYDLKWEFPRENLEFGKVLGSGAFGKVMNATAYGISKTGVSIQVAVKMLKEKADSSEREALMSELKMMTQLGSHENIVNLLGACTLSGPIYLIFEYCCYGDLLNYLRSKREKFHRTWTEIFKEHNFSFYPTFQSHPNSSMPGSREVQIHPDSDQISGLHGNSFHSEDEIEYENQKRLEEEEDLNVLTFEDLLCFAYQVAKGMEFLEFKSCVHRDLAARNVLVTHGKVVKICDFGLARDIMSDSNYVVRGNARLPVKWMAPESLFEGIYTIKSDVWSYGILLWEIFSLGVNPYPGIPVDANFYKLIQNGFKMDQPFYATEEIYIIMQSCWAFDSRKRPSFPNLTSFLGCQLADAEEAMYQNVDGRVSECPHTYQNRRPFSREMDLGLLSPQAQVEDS
Sequence of Protein cereblon/Receptor-type tyrosine-protein kinase FLT3 (Homo sapiens), P36888+Q96SW2 [UNDEFINED MUTATION] (Q96SW2 whole entry, looked up, change not shown): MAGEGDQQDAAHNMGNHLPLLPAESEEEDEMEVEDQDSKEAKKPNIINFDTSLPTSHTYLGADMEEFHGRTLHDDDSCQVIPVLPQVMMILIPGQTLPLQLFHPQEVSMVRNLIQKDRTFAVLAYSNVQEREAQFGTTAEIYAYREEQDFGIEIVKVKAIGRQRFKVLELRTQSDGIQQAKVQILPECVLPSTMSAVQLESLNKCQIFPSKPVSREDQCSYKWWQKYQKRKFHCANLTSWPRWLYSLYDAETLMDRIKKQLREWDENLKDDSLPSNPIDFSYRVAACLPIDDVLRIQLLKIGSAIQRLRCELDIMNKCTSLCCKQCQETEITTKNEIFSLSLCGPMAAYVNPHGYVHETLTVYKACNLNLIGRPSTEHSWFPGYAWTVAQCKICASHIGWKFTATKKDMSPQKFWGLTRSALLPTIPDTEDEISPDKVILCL

[25] = tested on: Protein cereblon/Receptor-type tyrosine-protein kinase FLT3 (Homo sapiens), P36888+Q96SW2 [UNDEFINED MUTATION]; test: PROTAC activity at CRBN/FLT3-ITD mutant in human MOLM-13 cells assessed as protein degradation at 100 nM incubated for 8 hrs by Western blot analysis; format: cell-based
MV4-11 [26] = test: Induction of apoptosis in human MV4-11 cells at 50 nM incubated for 24 hrs by Annexin V-FITC/PI staining based flow cytometry; format: functional, cell-based
MOLM-13 [27] = test: Induction of apoptosis in human MOLM-13 cells at 50 nM incubated for 24 hrs by Annexin V-FITC/PI staining based flow cytometry; format: functional, cell-based

Cc1c(NC(=O)CN2CCN(C(=O)CCCC(=O)NCCNc3cccc4c3C(=O)N(C3CCC(=O)NC3=O)C4=O)CC2)c[nH]c1/C=C1\C(=O)Nc2ccc(F)cc21 (stereo not given)
pIC50 (MV4-11 [1]): 6.64
pIC50 (MOLM-13 [2]): < 6.00

CCc1nc(C(N)=O)c(Nc2ccc(N3CCC(N4CCN(C)CC4)CC3)c(OC)c2)nc1NC1CCOCC1 [GILTERITINIB]
pIC50 (MV4-11 [1]): 7.40
pIC50 (MOLM-13 [2]): 7.17
pIC50 (MOLM-13 [3]): 4.96
pIC50 (MOLM-13 [4]): 5.63

Cc1c(NC(=O)CN2CCN(CCCCCCCCCOc3cccc4c3C(=O)N(C3CCC(=O)NC3=O)C4=O)CC2)c[nH]c1/C=C1\C(=O)Nc2ccc(F)cc21 (stereo not given)
pIC50 (MV4-11 [1]): 6.88
pIC50 (MOLM-13 [2]): 6.56

CC(C)(C)c1cc(NC(=O)Nc2ccc(-c3cn4c(n3)sc3cc(OCCN5CCOCC5)ccc34)cc2)no1 [QUIZARTINIB]
pIC50 (MV4-11 [1]): 7.47
pIC50 (MOLM-13 [2]): 7.40
pIC50 (MOLM-13 [3]): 5.91
pIC50 (MOLM-13 [4]): 4.39

Cc1c(NC(=O)CN2CCN(C3CCN(c4ccc5c(c4)C(=O)N(C4CCC(=O)NC4=O)C5=O)CC3)CC2)c[nH]c1/C=C1\C(=O)Nc2ccc(F)cc21 (stereo not given)
pIC50 (MV4-11 [1]): 6.98
pIC50 (MOLM-13 [2]): 6.47

Cc1ncsc1-c1ccc(CNC(=O)[C@@H]2C[C@@H](O)CN2C(=O)[C@@H](NC(=O)CCCCC(=O)N2CCN(CC(=O)Nc3c[nH]c(/C=C4\C(=O)Nc5ccc(F)cc54)c3C)CC2)C(C)(C)C)cc1
pIC50 (MV4-11 [1]): 6.44
pIC50 (MOLM-13 [2]): < 6.00

Cc1c(NC(=O)CN2CCN(C(=O)CCOCCOCCNC(=O)COc3cccc4c3C(=O)N(C3CCC(=O)NC3=O)C4=O)CC2)c[nH]c1/C=C1\C(=O)Nc2ccc(F)cc21 (stereo not given)
pIC50 (MV4-11 [1]): 6.41
pIC50 (MOLM-13 [2]): < 6.00

Cc1ncsc1-c1ccc(CNC(=O)[C@H]2C[C@H](O)CN2C(=O)[C@@H](NC(=O)CCCCCCCCC(=O)N2CCN(CC(=O)Nc3c[nH]c(/C=C4\C(=O)Nc5ccc(F)cc54)c3C)CC2)C(C)(C)C)cc1
pIC50 (MV4-11 [1]): 6.39
pIC50 (MOLM-13 [2]): < 6.00

Cc1c(NC(=O)CN2CCN(CCCCCCCCC(=O)Nc3cccc4c3C(=O)N(C3CCC(=O)NC3=O)C4=O)CC2)c[nH]c1/C=C1\C(=O)Nc2ccc(F)cc21 (stereo not given)
pIC50 (MV4-11 [1]): 6.64
pIC50 (MOLM-13 [2]): 6.52

Cc1c(NC(=O)CN2CCN(C3CN(c4ccc5c(c4)C(=O)N(C4CCC(=O)NC4=O)C5=O)C3)CC2)c[nH]c1/C=C1\C(=O)Nc2ccc(F)cc21 (stereo not given)
pIC50 (MV4-11 [1]): 6.77
pIC50 (MOLM-13 [2]): 6.44

Cc1c(NC(=O)CN2CCN(C(=O)CCOCCNC(=O)COc3cccc4c3C(=O)N(C3CCC(=O)NC3=O)C4=O)CC2)c[nH]c1/C=C1\C(=O)Nc2ccc(F)cc21 (stereo not given)
pIC50 (MV4-11 [1]): 6.09
pIC50 (MOLM-13 [2]): < 6.00

Cc1c(NC(=O)CCN2CCCC2)c[nH]c1/C=C1\C(=O)Nc2ccc(F)cc21
pIC50 (MV4-11 [1]): 7.62
IC50 at 48 h [5]: 1500 nM
IC50 at 48 h [6]: 2780 nM
IC50 at 48 h [7]: 6450 nM
inhibition in vivo at 1.6 mg/kg (MV4-11 [8]): 39.8%
pIC50 (MOLM-13 [3]): 6.09
pIC50 (MOLM-13 [4]): 5.82
half-life [9]: 3.21 h
half-life [10]: 1.5 h
half-life [11]: 0.983 h
half-life [12]: 1.01 h
half-life [13]: 0.758 h
CLint scaled [14]: 8.32 mL/min/kg
CLint scaled [15]: 22.1 mL/min/kg
CLint scaled [16]: 31.7 mL/min/kg
CLint scaled [17]: 41 mL/min/kg
CLint scaled [18]: 120 mL/min/kg
CLhep predicted [19]: 5.93 mL/min/kg
CLhep predicted [20]: 12.9 mL/min/kg
CLhep predicted [21]: 18.4 mL/min/kg
CLhep predicted [22]: 27.7 mL/min/kg
CLhep predicted [23]: 51.4 mL/min/kg

Cc1c(NC(=O)CN2CCN(C3CC4(CCN(c5ccc6c(c5)C(=O)N(C5CCC(=O)NC5=O)C6=O)CC4)C3)CC2)c[nH]c1/C=C1\C(=O)Nc2ccc(F)cc21 (stereo not given)
pIC50 (MV4-11 [1]): 7.29
pIC50 (MOLM-13 [2]): 6.60

Cc1c(NC(=O)CN2CCN(CC3CCN(c4ccc5c(c4)C(=O)N(C4CCC(=O)N(C)C4=O)C5=O)CC3)CC2)c[nH]c1/C=C1\C(=O)Nc2ccc(F)cc21 (stereo not given)
Activity [24]: inactive
Activity [25]: inactive
Activity (MV4-11 [26]): inactive
Activity (MOLM-13 [27]): inactive

Cc1c(NC(=O)CN2CCN(C(=O)CCCCCNc3cccc4c3C(=O)N(C3CCC(=O)NC3=O)C4=O)CC2)c[nH]c1/C=C1\C(=O)Nc2ccc(F)cc21 (stereo not given)
pIC50 (MV4-11 [1]): 6.77
pIC50 (MOLM-13 [2]): 6.68

Cc1c(NC(=O)CN2CCN(C(=O)CCCCCCCC(=O)NCCNc3cccc4c3C(=O)N(C3CCC(=O)NC3=O)C4=O)CC2)c[nH]c1/C=C1\C(=O)Nc2ccc(F)cc21 (stereo not given)
pIC50 (MV4-11 [1]): 6.77
pIC50 (MOLM-13 [2]): 6.45

Cc1c(NC(=O)CN2CCN(C(=O)CCCCCCCCC(=O)NCCNc3cccc4c3C(=O)N(C3CCC(=O)NC3=O)C4=O)CC2)c[nH]c1/C=C1\C(=O)Nc2ccc(F)cc21 (stereo not given)
pIC50 (MV4-11 [1]): 6.67
pIC50 (MOLM-13 [2]): 6.63
